According to ChEMBL document CHEMBL1146685, “The difluoromethylene group as a replacement for the labile oxygen in steroid sulfates: a new approach to steroid sulfatase inhibitors” (Bioorg Med Chem Lett, 2004):
Blank lines part the entries; values can stand above or below the molecule they belong to.

Experiments:
Steryl-sulfatase [1] = target: T1, Steryl-sulfatase (Homo sapiens, UniProt P08842); assay: Competitive inhibitory activity against steroid sulfatase (STS)
T1 sequence (P08842 whole entry): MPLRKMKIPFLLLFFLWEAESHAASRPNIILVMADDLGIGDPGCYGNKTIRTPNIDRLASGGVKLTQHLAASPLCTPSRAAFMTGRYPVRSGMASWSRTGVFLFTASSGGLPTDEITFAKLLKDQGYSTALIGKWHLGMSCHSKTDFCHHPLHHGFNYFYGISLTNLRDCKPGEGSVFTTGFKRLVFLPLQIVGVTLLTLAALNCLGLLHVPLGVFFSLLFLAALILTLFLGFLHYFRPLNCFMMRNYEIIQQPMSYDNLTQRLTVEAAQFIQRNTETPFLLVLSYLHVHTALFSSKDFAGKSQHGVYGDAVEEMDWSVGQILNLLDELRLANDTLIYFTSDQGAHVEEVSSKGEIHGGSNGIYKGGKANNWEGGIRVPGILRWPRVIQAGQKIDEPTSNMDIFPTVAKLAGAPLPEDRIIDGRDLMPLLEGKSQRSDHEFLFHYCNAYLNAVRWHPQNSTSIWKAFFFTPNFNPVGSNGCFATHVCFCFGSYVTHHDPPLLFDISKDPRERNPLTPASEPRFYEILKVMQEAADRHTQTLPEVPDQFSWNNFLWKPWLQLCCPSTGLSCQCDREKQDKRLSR

Steryl-sulfatase [2] = target: T1, Steryl-sulfatase; assay: (§1) Inhibitory activity against steroid sulfatase (STS)
[3] = target: T2, Steryl-sulfatase (Homo sapiens) (UniProt P08842); assay: as §1
T2 sequence (whole entry): T1 sequence (P08842 whole entry)

[4] = target: T2, Steryl-sulfatase (Homo sapiens)
Steryl-sulfatase [5] = target: T1, Steryl-sulfatase; assay: Inhibitory activity against steroid sulfatase (STS) using methodology of Li et al.
[6] = substrate: C[C@]12CC[C@@H]3c4ccc(OS(=O)(=O)O)cc4CC[C@H]3[C@@H]1CCC2=O; assay: Michaelis-Menten constant steroid sulfatase (STS) was determined

Molecule: C[C@]12CC[C@@H]3c4ccc(C(F)(F)S(=O)(=O)O)cc4CCC3[C@@H]1CCC2=O (single isomer, unassigned)
Ki (Steryl-sulfatase [1]): 57 µM

Molecule: C[C@]12CC[C@@H]3c4ccc(Cc5nnn[nH]5)cc4CCC3[C@@H]1CCC2=O (single isomer, unassigned)
Alpha Ki [3]: 213 µM
Ki (Steryl-sulfatase [2]): 72.7 µM

Molecule: C[C@]12CC[C@@H]3c4ccc(CS(=O)(=O)O)cc4CCC3[C@@H]1CCC2=O (single isomer, unassigned)
Alpha Ki [4]: 1380 µM
Ki (Steryl-sulfatase [5]): 600 µM
Ki (Steryl-sulfatase [2]): 140 µM

Molecule: C[C@]12CC[C@@H]3c4ccc(C(F)(F)C5N=NN=N5)cc4CC[C@H]3[C@@H]1CCC2=O
Ki (Steryl-sulfatase [1]): 16 µM

B1: Steryl-sulfatase (Homo sapiens), P08842 (protein)
chain: T1 sequence (P08842 whole entry)
Km [6]: 21 µM

The remaining lines, values ahead:

Ki (Steryl-sulfatase [2]): 37 µM
Molecule: C[C@]12CC[C@@H]3c4ccc(C(F)(F)S(=O)(=O)O)cc4CC[C@H]3[C@@H]1CC/C2=C\O

Ki (Steryl-sulfatase [2]): 140 µM
Molecule: C[C@]12CC[C@@H]3c4ccc(CS(=O)(=O)O)cc4CC[C@H]3[C@@H]1CC/C2=C\O
